Data taken from ChEMBL document CHEMBL3797155, “The 5-aromatic hydantoin-3-acetate derivatives as inhibitors of the tumour multidrug resistance efflux pump P-glycoprotein (ABCB1): Synthesis, crystallographic and biological studies” (Bioorg Med Chem, 2016).

Tests used:
Assay type in all cases: cell-based
[1] = target: T1, ATP-dependent translocase ABCB1 (Homo sapiens, UniProt P08183); assay: Inhibition of human MDR1 expressed in mouse L5178 cells assessed as rhodamine-123 accumulation measured as fluorescence activity ratio at 20 uM after 20 mins by flow cytometry relative to control; settings: l5178, 20 min
T1 sequence (P08183 whole entry): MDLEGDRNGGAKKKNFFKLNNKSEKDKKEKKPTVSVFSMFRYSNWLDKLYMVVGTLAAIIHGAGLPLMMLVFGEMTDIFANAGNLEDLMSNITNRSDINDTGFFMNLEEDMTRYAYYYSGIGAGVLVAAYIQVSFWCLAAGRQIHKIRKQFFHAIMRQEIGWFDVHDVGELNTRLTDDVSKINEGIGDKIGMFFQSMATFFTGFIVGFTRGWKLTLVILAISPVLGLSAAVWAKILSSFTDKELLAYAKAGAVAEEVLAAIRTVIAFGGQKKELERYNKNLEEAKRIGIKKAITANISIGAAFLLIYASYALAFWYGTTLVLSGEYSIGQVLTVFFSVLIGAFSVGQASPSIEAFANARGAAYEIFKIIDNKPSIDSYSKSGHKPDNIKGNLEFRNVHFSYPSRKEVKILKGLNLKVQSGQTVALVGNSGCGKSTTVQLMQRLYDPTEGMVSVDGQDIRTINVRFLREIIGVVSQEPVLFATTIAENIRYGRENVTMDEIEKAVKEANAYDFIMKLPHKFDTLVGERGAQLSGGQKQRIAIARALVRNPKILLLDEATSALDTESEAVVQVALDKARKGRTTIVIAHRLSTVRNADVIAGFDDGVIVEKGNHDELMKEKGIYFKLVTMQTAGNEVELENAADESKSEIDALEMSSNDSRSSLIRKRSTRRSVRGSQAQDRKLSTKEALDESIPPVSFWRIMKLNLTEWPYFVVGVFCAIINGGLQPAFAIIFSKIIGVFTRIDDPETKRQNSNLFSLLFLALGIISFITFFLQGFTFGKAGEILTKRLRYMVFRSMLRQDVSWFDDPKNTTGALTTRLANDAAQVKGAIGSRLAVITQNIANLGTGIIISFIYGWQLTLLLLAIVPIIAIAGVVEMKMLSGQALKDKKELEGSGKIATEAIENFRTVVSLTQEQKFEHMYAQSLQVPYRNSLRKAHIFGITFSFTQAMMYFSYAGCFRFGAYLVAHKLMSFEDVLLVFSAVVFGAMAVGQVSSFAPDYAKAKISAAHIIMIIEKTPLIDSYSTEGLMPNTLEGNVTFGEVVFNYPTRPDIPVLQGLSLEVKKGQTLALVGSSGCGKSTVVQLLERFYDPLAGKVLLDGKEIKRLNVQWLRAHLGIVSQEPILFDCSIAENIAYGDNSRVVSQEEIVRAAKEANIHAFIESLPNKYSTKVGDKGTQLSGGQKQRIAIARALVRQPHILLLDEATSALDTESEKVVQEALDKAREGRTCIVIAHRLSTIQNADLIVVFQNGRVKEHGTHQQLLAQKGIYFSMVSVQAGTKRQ

[2] = Cytotoxicity against multidrug resistant mouse L5178 cells after 24 hrs by MTT assay; settings: l5178, 24 h
[3] = Cytotoxicity against sensitive mouse L5178 cells after 24 hrs by MTT assay; settings: l5178, 24 h
[4] = target: T1, ATP-dependent translocase ABCB1; assay: Inhibition of human MDR1 expressed in mouse L5178 cells assessed as rhodamine-123 accumulation measured as fluorescence activity ratio at 2 uM after 20 mins by flow cytometry relative to control; settings: l5178, 20 min

SMILES | Ratio [1] | Ratio [4] | Activity [2] [µM] | Activity [3] [µM]
COC(=O)CN1C(=O)N(CCCCN2CCN(c3ccccc3F)CC2)C(c2ccccc2)(c2ccccc2)C1=O | 99.09 | 102.74 | > 100 | > 100
COC(=O)CN1C(=O)N(CCCCN2CCN(c3ccccc3)CC2)C(c2ccccc2)(c2ccccc2)C1=O | 99.82 | 77.15 | 26 | 13
COc1ccccc1N1CCN(CC(O)CN2C(=O)N(CC(=O)O)C(=O)C2(c2ccccc2)c2ccccc2)CC1 (centres undefined) | 0.86 | 0.84 | > 100 | > 100
COc1ccc(CCN(C)CCCC(C#N)(c2ccc(OC)c(OC)c2)C(C)C)cc1OC (centres undefined) [VERAPAMIL] | 17.59 | – | – | –
COC(=O)CN1C(=O)N(CCCN2CCN(c3ccccc3)CC2)C(c2ccccc2)(c2ccccc2)C1=O | 116.27 | 89.34 | > 100 | 40
COC(=O)CN1C(=O)N(CC(O)CN2CCN(c3ccccc3)CC2)C(c2ccccc2)(c2ccccc2)C1=O (centres undefined) | 90.43 | 72.64 | 67 | 33

Further lines, with some results ahead:

Ratio [1] | Ratio [4] | SMILES | Activity [2] [µM] | Activity [3] [µM]
71.11 | 19.4 | COC(=O)CN1C(=O)N(CCCCN2CCN(c3ccc(F)cc3)CC2)C2(C1=O)c1ccccc1-c1ccccc12 | 56 | 40
0.69 | 0.68 | O=C(O)CN1C(=O)N(CCCCN2CCN(C(=O)c3ccco3)CC2)C2(C1=O)c1ccccc1-c1ccccc12 | > 100 | > 100
72.04 | 35.38 | COC(=O)CN1C(=O)N(CCCCN2CCN(c3ccccc3F)CC2)C2(C1=O)c1ccccc1-c1ccccc12 | 84 | 58
98.11 | 132.85 | COC(=O)CN1C(=O)N(CCCCN2CCN(c3cccc(Cl)c3Cl)CC2)C(c2ccccc2)(c2ccccc2)C1=O | 40 | 18
24.89 | 1.86 | COC(=O)CN1C(=O)N(CCCCN2CCN(C(=O)c3ccco3)CC2)C2(C1=O)c1ccccc1-c1ccccc12 | 63 | 59
2.04 | 1 | COc1ccccc1N1CCN(CCCCN2C(=O)N(CC(=O)O)C(=O)C2(c2ccccc2)c2ccccc2)CC1 | > 100 | > 100
70.19 | 21.61 | COC(=O)CN1C(=O)N(CCCCN2CCN(c3ccccc3)CC2)C2(C1=O)c1ccccc1-c1ccccc12 | > 100 | 53
